Results taken from US12264139B2, “Aryl sulfonamides as BLT1 antagonists” (Merck Sharp & Dohme LLC, priority 2015, dated 2025).

Target: T1, human BLT1 receptor (Homo sapiens, UniProt Q15722)
T1 construct: expressed in transfected cells; host or cells: HEK293
Test: BLT-1 cAMP Assay
Format: cell-based
Settings: HEK293 cells recombinantly expressing human BLT1; antagonist activity vs forskolin 4 μM and LTB4 2 nM; cAMP (CisBio kit)
Method: The ability of compounds to antagonize the human BLT1 receptor was determined using a kit to measure changes in intracellular cyclic AMP levels (cAMP dynamic assay kit, Cisbio Cat. No. 62AM4PEC). […] The cell suspension was centrifuged at 200×g for 10 min and then resuspended in fresh assay medium to a density of 2.5×10^5 cells/mL. […] All subsequent liquid additions were performed using a BIORAPTR (FRD; Beckman Coulter). Next, 5 μL of cell suspension was added and incubated for 20 min. at 37° C. and 5% CO2 in a humidified plastic tray.
The levels of cAMP were detected using the CisBio kit following the manufacturer's instructions: cAMP-d2 vial was reconstituted with distilled water and then diluted accordingly with conjugate & lysis buffer. 5 µL of cAMP-d2 working solution was added to all of the wells of the assay plate. cAMP-Cryptate vial was reconstituted with distilled water and then diluted accordingly with conjugate & lysis buffer. 5 µL of cAMP-Cryptate working solution were added to the assay plate. The assay plate was shaken for 3 minutes and incubated at room temperature for 45 minutes, then read on Perkin Elmer Envision. cAMP standard curve and fit data were plotted using a 4 parameter dose response curve fitting algorithm to fit curve. […] After normalization to treated and untreated controls, the percent effect of signal at each compound concentration was calculated. The plot of percent effect versus the log of compound concentration was fit with a 4-parameter concentration response equation to calculate EC50 values.

T1 sequence (Q15722 whole entry): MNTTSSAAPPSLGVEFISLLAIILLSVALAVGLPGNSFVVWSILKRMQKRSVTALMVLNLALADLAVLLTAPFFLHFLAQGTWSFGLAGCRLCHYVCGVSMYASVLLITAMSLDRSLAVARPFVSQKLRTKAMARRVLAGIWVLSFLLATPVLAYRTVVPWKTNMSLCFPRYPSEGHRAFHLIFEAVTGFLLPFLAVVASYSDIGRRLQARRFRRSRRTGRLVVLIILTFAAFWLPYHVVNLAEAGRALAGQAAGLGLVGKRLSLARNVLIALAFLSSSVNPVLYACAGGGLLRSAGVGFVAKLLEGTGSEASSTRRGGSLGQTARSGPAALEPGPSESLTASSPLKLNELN

SMILES	EC50
O=S(=O)(Nc1ccccc1-c1ccc2c(c1)OC[C@@H](Cc1ccc(-c3ccccc3)cn1)[C@@H]2O)C(F)(F)F (single isomer, unassigned) [Example 40, (2-((3R,4S or 3S,4R)-4-hydroxy-3-((5-phenylpyridin-2-yl)methyl)chroman-7-yl)phenyl)((trifluoromethyl)sulfonyl)amide]	18 nM
O=S(=O)(Nc1ccccc1-c1ccc2c(c1)OC[C@@H](Cc1cnc(-c3ccccc3)s1)[C@@H]2O)C(F)(F)F (single isomer, unassigned) [Example 42, 1,1,1-Trifluoro-N-(2-((3S,4R or 3R,4S)-4-hydroxy-3-((2-phenylthiazol-5-yl)methyl)chroman-7-yl)phenyl)methanesulfonamide]	445 nM
O=S(=O)(Nc1ccccc1-c1ccc2c(c1)OC[C@H](Cc1cnc(-c3ccccc3)s1)[C@H]2O)C(F)(F)F (single isomer, unassigned) [Example 43, 1,1,1-Trifluoro-N-(2-((3R,4S or 3S,4R)-4-hydroxy-3-((2-phenylthiazol-5-yl)methyl)chroman-7-yl)phenyl)methanesulfonamide]	64 nM
CCn1ccc(C[C@H]2COc3cc(-c4ccccc4NS(=O)(=O)C(F)(F)F)ccc3[C@@H]2O)n1 (single isomer, unassigned) [Example 46, N-(2-((3S,4R or 3R,4S)-3-((1-ethyl-1H-pyrazol-3-yl)methyl)-4-hydroxychroman-7-yl)phenyl)-1,1,1-trifluoromethanesulfonamide]	157 nM
CCn1ccc(C[C@@H]2COc3cc(-c4ccccc4NS(=O)(=O)C(F)(F)F)ccc3[C@H]2O)n1 (single isomer, unassigned) [Example 47, N-(2-((3R,4S or 3S,4R)-3-((1-ethyl-1H-pyrazol-3-yl)methyl)-4-hydroxychroman-7-yl)phenyl)-1,1,1-trifluoromethanesulfonamide]	1200 nM
O=S(=O)(Nc1ccccc1-c1ccc2c(c1)OC[C@H](Cc1cscn1)[C@H]2O)C(F)(F)F (single isomer, unassigned) [Example 50, 1,1,1-trifluoro-N-{2-[(3R,4S or 3S,4R)-4-hydroxy-3-(1,3-thiazol-4-ylmethyl)-3,4-dihydro-2H-chromen-7-yl]phenyl}-methanesulfonamide]	29 nM
O=S(=O)(Nc1ccccc1-c1ccc2c(c1)OC[C@@H](Cc1cscn1)[C@@H]2O)C(F)(F)F (single isomer, unassigned) [Example 51, 1,1,1-trifluoro-N-{2-[(3S,4R or 3R,4S)-4-hydroxy-3-(1,3-thiazol-4-ylmethyl)-3,4-dihydro-2H-chromen-7-yl]phenyl}-methanesulfonamide]	808 nM
Cc1cnc(C[C@@H]2COc3cc(-c4ccccc4NS(=O)(=O)C(F)(F)F)ccc3[C@H]2O)s1 (single isomer, unassigned) [Example 52, 1,1,1-trifluoro-N-(2-{(3S,4R or 3R,4S)-4-hydroxy-3-[(5-methyl-1,3-thiazol-2-yl)methyl]-3,4-dihydro-2H-chromen-7-yl}phenyl)methanesulfonamide]	4040 nM
Cc1cnc(C[C@H]2COc3cc(-c4ccccc4NS(=O)(=O)C(F)(F)F)ccc3[C@@H]2O)s1 (single isomer, unassigned) [Example 53, 1,1,1-trifluoro-N-(2-{(3R,4S or 3S,4R)-4-hydroxy-3-[(5-methyl-1,3-thiazol-2-yl)methyl]-3,4-dihydro-2H-chromen-7-yl}phenyl)methanesulfonamide]	69 nM
Cc1nc(C[C@@H]2COc3cc(-c4ccccc4NS(=O)(=O)C(F)(F)F)ccc3[C@H]2O)cs1 (single isomer, unassigned) [Example 56, 1,1,1-Trifluoro-N-(2-{(3R,4S or 3S,4R)-4-hydroxy-3-[(2-methyl-1,3-thiazol-4-yl)methyl]-3,4-dihydro-2H-chromen-7-yl}phenyl)-methanesulfonamide]	826 nM
Cc1nc(C[C@H]2COc3cc(-c4ccccc4NS(=O)(=O)C(F)(F)F)ccc3[C@@H]2O)cs1 (single isomer, unassigned) [Example 57, 1,1,1-Trifluoro-N-(2-{(3S,4R or 3R,4S)-4-hydroxy-3-[(2-methyl-1,3-thiazol-4-yl)methyl]-3,4-dihydro-2H-chromen-7-yl}phenyl)-methanesulfonamide]	10 nM
O=S(=O)(Nc1ccccc1-c1ccc2c(c1)OC[C@H](Cc1ccccc1)[C@H]2O)C(F)(F)F (single isomer, unassigned) [Example 59, N-{2-[(3S,4R or 3R,4S)-3-benzyl-4-hydroxy-3,4-dihydro-2H-chromen-7-yl]phenyl}-1,1,1-trifluoromethanesulfonamide]	15 nM
Cc1cccnc1C[C@H]1COc2cc(-c3ccccc3NS(=O)(=O)C(F)(F)F)ccc2[C@@H]1O (single isomer, unassigned) [Example 60, 1,1,1-Trifluoro-N-(2-{(3,4-trans)-4-hydroxy-3-[(3-methylpyridin-2-yl)methyl]-3,4-dihydro-2H-chromen-7-yl}phenyl)methanesulfonamide]	269 nM
O=S(=O)(Nc1ccccc1-c1ccc2c(c1)OC[C@@H](Cc1cccs1)[C@@H]2O)C(F)(F)F (single isomer, unassigned) [Example 61, 1,1,1-trifluoro-N-{2-[(3R,4S or 3S,4R)-4-hydroxy-3-(thiophen-2-ylmethyl)-3,4-dihydro-2H-chromen-7-yl]phenyl}methanesulfonamide]	1340 nM
O=S(=O)(Nc1ccccc1-c1ccc2c(c1)OC[C@H](Cc1cccs1)[C@H]2O)C(F)(F)F (single isomer, unassigned) [Example 62, 1,1,1-trifluoro-N-{2-[(3S,4R or 3R,4S)-4-hydroxy-3-(thiophen-2-ylmethyl)-3,4-dihydro-2H-chromen-7-yl]phenyl}methanesulfonamide]	23 nM
Cc1cccc(C[C@@H]2COc3cc(-c4ccccc4NS(=O)(=O)C(F)(F)F)ccc3[C@H]2O)n1 (single isomer, unassigned) [Example 63, 1,1,1-Trifluoro-N-(2-{(3,4-trans)-4-hydroxy-3-[(6-methyl-pyridin-2-yl)methyl]-3,4-dihydro-2H-chromen-7-yl}-phenyl)methanesulfonamide]	320 nM
O=S(=O)(Nc1ccccc1-c1ccc2c(c1)OC[C@@H](Cc1csc(-c3ccccc3)n1)[C@@H]2O)C(F)(F)F (single isomer, unassigned) [Example 64, 1,1,1-Trifluoro-N-(2-((3R,4S or 3S,4R)-4-hydroxy-3-((2-phenylthiazol-4-yl)-methyl)chroman-7-yl)-phenyl)methanesulfonamide]	971 nM
O=S(=O)(Nc1ccccc1-c1ccc2c(c1)OC[C@H](Cc1csc(-c3ccccc3)n1)[C@H]2O)C(F)(F)F (single isomer, unassigned) [Example 65, 1,1,1-Trifluoro-N-(2-((3S,4R or 3R,4S)-4-hydroxy-3-((2-phenylthiazol-4-yl)-methyl)chroman-7-yl)-phenyl)methanesulfonamide]	47 nM
Cn1nccc1C[C@@H]1COc2cc(-c3ccccc3NS(=O)(=O)C(F)(F)F)ccc2[C@H]1O (single isomer, unassigned) [Example 66, 1,1,1-trifluoro-N-(2-{(3,4-trans)-4-hydroxy-3-[(1-methyl-1H-pyrazol-5-yl)methyl]-3,4-di-hydro-2H-chromen-7-yl}-phenyl)methanesulfonamide]	210 nM
O=S(=O)(Nc1ccccc1-c1ccc2c(c1)OC[C@@H](Cc1ccc(-c3ccccc3)cc1)[C@@H]2O)C(F)(F)F (single isomer, unassigned) [Example 67, N-{2-[(3S,4R or 3R,4S)-3-(biphenyl-4-ylmethyl)-4-hydroxy-3,4-dihydro-2H-chromen-7-yl]phenyl}-1,1,1-trifluoromethanesulfonamide]	48 nM
O=S(=O)(Nc1ccccc1-c1ccc2c(c1)OC[C@H](Cc1ccc(-c3ccccc3)cc1)[C@H]2O)C(F)(F)F (single isomer, unassigned) [Example 68, N-{2-[(3R,4S or 3S,4R)-3-(biphenyl-4-ylmethyl)-4-hydroxy-3,4-dihydro-2H-chromen-7-yl]phenyl}-1,1,1-trifluoromethanesulfonamide]	5.3 nM
O=S(=O)(Nc1ccccc1-c1ccc2c(c1)OC[C@@H](Cc1ncccc1F)[C@@H]2O)C(F)(F)F (single isomer, unassigned) [Example 69, 1,1,1-Trifluoro-N-(2-{(3,4-trans)-3-[(3-fluoropyridin-2-yl)methyl]-4-hydroxy-3,4-dihydro-2H-chromen-7-yl}phenyl)methanesulfonamide]	30 nM
Cc1nnc(C[C@@H]2COc3cc(-c4ccccc4NS(=O)(=O)C(F)(F)F)ccc3[C@H]2O)s1 (single isomer, unassigned) [Example 70, 1,1,1-Trifluoro-N-(2-{(3,4-trans)-4-hydroxy-3-[(5-methyl-1,3,4-thiadiazol-2-yl)methyl]-3,4-dihydro-2H-chromen-7-yl}phenyl)-methanesulfonamide]	261 nM
O=S(=O)(Nc1ccccc1-c1ccc2c(c1)OC[C@@H](Cc1cc[nH]n1)[C@@H]2O)C(F)(F)F (single isomer, unassigned) [Example 71, 1,1,1-trifluoro-N-{2-[(3,4-trans)-4-hydroxy-3-(1H-pyrazol-3-ylmethyl)-3,4-dihydro-2H-chromen-7-yl]phenyl}-methanesulfonamide]	125 nM
